Values quoted from earlier work as cited in publication PMC11331742 (Military Medical Research, 2024).

What was measured:
preclinical models = test system: preclinical models
Text: (§1) In addition, studies involving MC2r-independent agonists such as PT-141 could provide insight into cortisol-independent anti-inflammatory mechanisms.

MC2r = test system: MC2r; parameters: method as in PMID 25140322
[1] = test system: mouse model of acute lung injury
Text: as §1

| Compound | anti-inflammatory effects (preclinical models) | affinity for MC2r (MC2r) | effect on inflammation [1] |
| --- | --- | --- | --- |
| CCCC(=O)C1(c2ccccc2)CCN(C(=O)[C@@H](Cc2ccc(OC)cc2)NC(=O)[C@@H](N)Cc2cncn2C)CC1 [BMS-470539] | promising anti-inflammatory effects |  |  |
| α-melanocyte-stimulating hormone [α-MSH] |  | minimal affinity | reduced inflammation |
